Laboratory results: ChEMBL document CHEMBL3885861, “Open TG-GATES”

Species on record: Rattus norvegicus
Assay: Open TG-GATES - Regimen: Single
Type: toxicity, organism-based, Sprague-Dawley
Set-up: regimen Single, gender Male, age 6 weeks
Details: in vivo, po, route gavage; for KIDNEY_L / KIDNEY_R / KIDNEY_TOTAL: tissue Kidney; for LIVER: tissue Liver; for ALT / AST / BUN / CRE / DBIL / GLC / IP / K / PL / RALB / TBIL / TC / TG / TP / gamma-GTP / ALP: tissue Plasma
[1] = 0 mg/kg, 3 h, tissue Blood, dose level Control
[2] = 0 mg/kg, 3 h, dose level Control
[3] = 0 mg/kg, 6 h, tissue Blood, dose level Control
[4] = 0 mg/kg, 6 h, dose level Control
[5] = 0 mg/kg, 9 h, tissue Blood, dose level Control
[6] = 0 mg/kg, 9 h, dose level Control
[7] = 0 mg/kg, 24 h, tissue Blood, dose level Control
[8] = 0 mg/kg, 24 h, dose level Control
[9] = 10 mg/kg, 3 h, tissue Blood, dose level Low
[10] = 10 mg/kg, 6 h, tissue Blood, dose level Low
[11] = 10 mg/kg, 9 h, tissue Blood, dose level Low
[12] = 10 mg/kg, 24 h, tissue Blood, dose level Low

SMILES: CC(C)OC(=O)C(C)(C)Oc1ccc(C(=O)c2ccc(Cl)cc2)cc1 [FENOFIBRATE]
- Bas [1]: 0.4%
- Eos [1]: 0.8%
- Fbg [1]: 289.4 mg/dL
- Ht [1]: 39.8%
- MCHC [1]: 32.5%
- Mono [1]: 4%
- RBC [1]: 616.8 x10_4/ul
- Ret [1]: 9%
- KIDNEY_L [2]: 0.8 g
- KIDNEY_R [2]: 0.8 g
- KIDNEY_TOTAL [2]: 1.5 g
- LIVER [2]: 7.9 g
- ALT [2]: 48.4 IU/L
- AST [2]: 83 IU/L
- BUN [2]: 9 mg/dL
- CRE [2]: 0.2 mg/dL
- DBIL [2]: 0.006 mg/dL
- GLC [2]: 182.6 mg/dL
- IP [2]: 9.5 mg/dL
- K [2]: 4.3 meq/L
- PL [2]: 140.8 mg/dL
- RALB [2]: 2.4 g/dL
- TBIL [2]: 0.048 mg/dL
- TC [2]: 77 mg/dL
- TG [2]: 41.2 mg/dL
- TP [2]: 5.2 g/dL
- gamma-GTP [2]: 1.4 IU/L
- Bas [3]: 0.4%
- Eos [3]: 0.8%
- Fbg [3]: 268.2 mg/dL
- Ht [3]: 40.1%
- MCHC [3]: 32.4%
- Mono [3]: 3%
- RBC [3]: 599.2 x10_4/ul
- Ret [3]: 9.6%
- KIDNEY_L [4]: 0.8 g
- KIDNEY_R [4]: 0.8 g
- KIDNEY_TOTAL [4]: 1.5 g
- LIVER [4]: 7.2 g
- ALP [4]: 1534.8 IU/L
- ALT [4]: 41.8 IU/L
- AST [4]: 81.8 IU/L
- BUN [4]: 9.6 mg/dL
- CRE [4]: 0.2 mg/dL
- DBIL [4]: 0.008 mg/dL
- GLC [4]: 173.8 mg/dL
- IP [4]: 9.7 mg/dL
- K [4]: 4.1 meq/L
- PL [4]: 142.6 mg/dL
- RALB [4]: 2.5 g/dL
- TBIL [4]: 0.056 mg/dL
- TC [4]: 82.4 mg/dL
- TG [4]: 44.6 mg/dL
- TP [4]: 5.4 g/dL
- gamma-GTP [4]: 1 IU/L
- Bas [5]: 0%
- Eos [5]: 1%
- Fbg [5]: 292.6 mg/dL
- Ht [5]: 39.3%
- MCHC [5]: 32.3%
- Mono [5]: 2.4%
- RBC [5]: 584.2 x10_4/ul
- Ret [5]: 9.6%
- KIDNEY_L [6]: 0.8 g
- KIDNEY_R [6]: 0.8 g
- KIDNEY_TOTAL [6]: 1.5 g
- LIVER [6]: 6.9 g
- ALP [6]: 1454.2 IU/L
- ALT [6]: 38.6 IU/L
- AST [6]: 75.8 IU/L
- BUN [6]: 8.4 mg/dL
- CRE [6]: 0.2 mg/dL
- DBIL [6]: 0.008 mg/dL
- GLC [6]: 178.8 mg/dL
- IP [6]: 9.5 mg/dL
- K [6]: 4 meq/L
- PL [6]: 145.8 mg/dL
- RALB [6]: 2.4 g/dL
- TBIL [6]: 0.058 mg/dL
- TC [6]: 83.2 mg/dL
- TG [6]: 38.6 mg/dL
- TP [6]: 5.2 g/dL
- gamma-GTP [6]: 1 IU/L
- Bas [7]: 0.2%
- Eos [7]: 1%
- Fbg [7]: 281.4 mg/dL
- Ht [7]: 39.1%
- MCHC [7]: 32.7%
- Mono [7]: 3%
- RBC [7]: 590.8 x10_4/ul
- Ret [7]: 9.3%
- KIDNEY_L [8]: 0.9 g
- KIDNEY_R [8]: 0.8 g
- KIDNEY_TOTAL [8]: 1.7 g
- LIVER [8]: 9.1 g
- ALT [8]: 50.4 IU/L
- AST [8]: 77.6 IU/L
- CRE [8]: 0.2 mg/dL
- DBIL [8]: 0.012 mg/dL
- GLC [8]: 186.2 mg/dL
- IP [8]: 8.5 mg/dL
- K [8]: 4.4 meq/L
- PL [8]: 153.6 mg/dL
- RALB [8]: 2.6 g/dL
- TBIL [8]: 0.04 mg/dL
- TC [8]: 82.8 mg/dL
- TG [8]: 65 mg/dL
- TP [8]: 5.6 g/dL
- gamma-GTP [8]: 0.8 IU/L
- Bas [9]: 0.2%
- Eos [9]: 0.6%
- Fbg [9]: 280.8 mg/dL
- Ht [9]: 40.3%
- MCHC [9]: 32.3%
- Mono [9]: 3.6%
- RBC [9]: 603 x10_4/ul
- Ret [9]: 10.2%
- KIDNEY_L (10 mg/kg, 3 h, dose level Low): 0.8 g
- KIDNEY_R (10 mg/kg, 3 h, dose level Low): 0.8 g
- KIDNEY_TOTAL (10 mg/kg, 3 h, dose level Low): 1.6 g
- LIVER (10 mg/kg, 3 h, dose level Low): 7.8 g
- ALP (10 mg/kg, 3 h, dose level Low): 1472.8 IU/L
- ALT (10 mg/kg, 3 h, dose level Low): 49.4 IU/L
- AST (10 mg/kg, 3 h, dose level Low): 83.6 IU/L
- BUN (10 mg/kg, 3 h, dose level Low): 9.8 mg/dL
- CRE (10 mg/kg, 3 h, dose level Low): 0.2 mg/dL
- DBIL (10 mg/kg, 3 h, dose level Low): 0.01 mg/dL
- GLC (10 mg/kg, 3 h, dose level Low): 178.4 mg/dL
- IP (10 mg/kg, 3 h, dose level Low): 10 mg/dL
- K (10 mg/kg, 3 h, dose level Low): 4.2 meq/L
- PL (10 mg/kg, 3 h, dose level Low): 140.8 mg/dL
- RALB (10 mg/kg, 3 h, dose level Low): 2.4 g/dL
- TBIL (10 mg/kg, 3 h, dose level Low): 0.058 mg/dL
- TC (10 mg/kg, 3 h, dose level Low): 80.4 mg/dL
- TG (10 mg/kg, 3 h, dose level Low): 43 mg/dL
- TP (10 mg/kg, 3 h, dose level Low): 5.2 g/dL
- gamma-GTP (10 mg/kg, 3 h, dose level Low): 1.4 IU/L
- Bas [10]: 0%
- Eos [10]: 0.8%
- Fbg [10]: 283 mg/dL
- Ht [10]: 39.7%
- Lym [10]: 69.4%
- MCHC [10]: 32%
- Mono [10]: 2.6%
- RBC [10]: 572.6 x10_4/ul
- Ret [10]: 11.1%
- KIDNEY_L (10 mg/kg, 6 h, dose level Low): 0.8 g
- KIDNEY_R (10 mg/kg, 6 h, dose level Low): 0.8 g
- KIDNEY_TOTAL (10 mg/kg, 6 h, dose level Low): 1.6 g
- LIVER (10 mg/kg, 6 h, dose level Low): 7.8 g
- ALP (10 mg/kg, 6 h, dose level Low): 1504.8 IU/L
- ALT (10 mg/kg, 6 h, dose level Low): 43.4 IU/L
- AST (10 mg/kg, 6 h, dose level Low): 77.2 IU/L
- BUN (10 mg/kg, 6 h, dose level Low): 8.8 mg/dL
- CRE (10 mg/kg, 6 h, dose level Low): 0.2 mg/dL
- DBIL (10 mg/kg, 6 h, dose level Low): 0.01 mg/dL
- GLC (10 mg/kg, 6 h, dose level Low): 180.2 mg/dL
- IP (10 mg/kg, 6 h, dose level Low): 10.2 mg/dL
- K (10 mg/kg, 6 h, dose level Low): 4.2 meq/L
- PL (10 mg/kg, 6 h, dose level Low): 128 mg/dL
- RALB (10 mg/kg, 6 h, dose level Low): 2.5 g/dL
- TBIL (10 mg/kg, 6 h, dose level Low): 0.056 mg/dL
- TC (10 mg/kg, 6 h, dose level Low): 71.6 mg/dL
- TG (10 mg/kg, 6 h, dose level Low): 36.8 mg/dL
- TP (10 mg/kg, 6 h, dose level Low): 5.4 g/dL
- gamma-GTP (10 mg/kg, 6 h, dose level Low): 1.4 IU/L
- Bas [11]: 0%
- Eos [11]: 1%
- Fbg [11]: 283 mg/dL
- Ht [11]: 39.6%
- MCHC [11]: 32.4%
- Mono [11]: 1.4%
- RBC [11]: 608.4 x10_4/ul
- Ret [11]: 9.5%
- KIDNEY_L (10 mg/kg, 9 h, dose level Low): 0.8 g
- KIDNEY_R (10 mg/kg, 9 h, dose level Low): 0.8 g
- KIDNEY_TOTAL (10 mg/kg, 9 h, dose level Low): 1.6 g
- LIVER (10 mg/kg, 9 h, dose level Low): 7 g
- ALP (10 mg/kg, 9 h, dose level Low): 1360.4 IU/L
- ALT (10 mg/kg, 9 h, dose level Low): 42.4 IU/L
- AST (10 mg/kg, 9 h, dose level Low): 77.4 IU/L
- BUN (10 mg/kg, 9 h, dose level Low): 7.4 mg/dL
- CRE (10 mg/kg, 9 h, dose level Low): 0.1 mg/dL
- DBIL (10 mg/kg, 9 h, dose level Low): 0.01 mg/dL
- GLC (10 mg/kg, 9 h, dose level Low): 175.2 mg/dL
- IP (10 mg/kg, 9 h, dose level Low): 9.8 mg/dL
- K (10 mg/kg, 9 h, dose level Low): 3.9 meq/L
- PL (10 mg/kg, 9 h, dose level Low): 124 mg/dL
- RALB (10 mg/kg, 9 h, dose level Low): 2.4 g/dL
- TBIL (10 mg/kg, 9 h, dose level Low): 0.054 mg/dL
- TC (10 mg/kg, 9 h, dose level Low): 70.8 mg/dL
- TG (10 mg/kg, 9 h, dose level Low): 31.2 mg/dL
- TP (10 mg/kg, 9 h, dose level Low): 5.2 g/dL
- gamma-GTP (10 mg/kg, 9 h, dose level Low): 0.8 IU/L
- Bas [12]: 0%
- Eos [12]: 1%
- Fbg [12]: 270 mg/dL
- Ht [12]: 38.6%
- MCHC [12]: 32.4%
- Mono [12]: 3.8%
- RBC [12]: 590.4 x10_4/ul
- Ret [12]: 8.6%
- KIDNEY_L (10 mg/kg, 24 h, dose level Low): 0.8 g
- KIDNEY_R (10 mg/kg, 24 h, dose level Low): 0.8 g
- KIDNEY_TOTAL (10 mg/kg, 24 h, dose level Low): 1.6 g
- LIVER (10 mg/kg, 24 h, dose level Low): 9.2 g
- ALP (10 mg/kg, 24 h, dose level Low): 1838.8 IU/L
- ALT (10 mg/kg, 24 h, dose level Low): 49.2 IU/L
- AST (10 mg/kg, 24 h, dose level Low): 76.8 IU/L
- BUN (10 mg/kg, 24 h, dose level Low): 14.2 mg/dL
- CRE (10 mg/kg, 24 h, dose level Low): 0.2 mg/dL
- DBIL (10 mg/kg, 24 h, dose level Low): 0.012 mg/dL
- GLC (10 mg/kg, 24 h, dose level Low): 179.6 mg/dL
- IP (10 mg/kg, 24 h, dose level Low): 8.6 mg/dL
- K (10 mg/kg, 24 h, dose level Low): 4.3 meq/L
- PL (10 mg/kg, 24 h, dose level Low): 133.2 mg/dL
- RALB (10 mg/kg, 24 h, dose level Low): 2.6 g/dL
- TBIL (10 mg/kg, 24 h, dose level Low): 0.04 mg/dL
- TC (10 mg/kg, 24 h, dose level Low): 68.8 mg/dL
- TG (10 mg/kg, 24 h, dose level Low): 54 mg/dL
- TP (10 mg/kg, 24 h, dose level Low): 5.4 g/dL
- gamma-GTP (10 mg/kg, 24 h, dose level Low): 1.2 IU/L
